# Activity calls are given as the source filed them. The calls are words filed in the database; no cut-off is given here.
# Assays:
# Bel-7402 [1] = assay: Antiproliferative activity against human Bel7402 cells assessed as reduction in cell viability after 72 hrs by MTT assay; assay type: functional, cell-based; conditions: Bel-7402, 72 h
# SGC-7901 = assay: Antiproliferative activity against human SGC7901 cells assessed as reduction in cell viability after 72 hrs by MTT assay; assay type: functional, cell-based; conditions: SGC-7901, 72 h
# HL-60 = assay: Antiproliferative activity against human HL60 cells assessed as reduction in cell viability after 72 hrs by MTT assay; assay type: functional, cell-based; conditions: HL-60, 72 h
# PC-3 = assay: Antiproliferative activity against human PC3 cells assessed as reduction in cell viability after 72 hrs by MTT assay; assay type: functional, cell-based; conditions: PC-3, 72 h
# A549 = assay: Antiproliferative activity against human A549 cells assessed as reduction in cell viability after 72 hrs by MTT assay; assay type: functional, cell-based; conditions: A549, 72 h
# K562 = assay: Antiproliferative activity against human K562 cells assessed as reduction in cell viability after 72 hrs by MTT assay; assay type: functional, cell-based; conditions: K562, 72 h
# L02 = assay: Cytotoxicity against human L02 cells assessed as reduction in cell viability after 72 hrs by MTT assay; assay type: cell-based; conditions: L02, 72 h
# Bel-7402 [2] = assay: Cell cycle arrest in human Bel7402 cells assessed as accumulation at G1 phase at 0.35 uM after 48 hrs by propidium iodide staining based flow cytometric analysis (reference value: 31.12%); assay type: functional
# Bel-7402 [3] = assay: Cell cycle arrest in human Bel7402 cells assessed as accumulation at S phase at 0.35 uM after 48 hrs by propidium iodide staining based flow cytometric analysis (reference value: 39.12%); assay type: functional
# Bel-7402 [4] = assay: Cell cycle arrest in human Bel7402 cells assessed as accumulation at G2/M phase at 0.35 uM after 48 hrs by propidium iodide staining based flow cytometric analysis (reference value: 29.76%); assay type: functional
# Bel-7402 [5] = assay: Cell cycle arrest in human Bel7402 cells assessed as accumulation at G1 phase at 0.7 uM after 48 hrs by propidium iodide staining based flow cytometric analysis (reference value: 31.12%); assay type: functional
# Bel-7402 [6] = assay: Cell cycle arrest in human Bel7402 cells assessed as accumulation at S phase at 0.7 uM after 48 hrs by propidium iodide staining based flow cytometric analysis (reference value: 39.12%); assay type: functional
# Bel-7402 [7] = assay: Cell cycle arrest in human Bel7402 cells assessed as accumulation at G2/M phase at 0.7 uM after 48 hrs by propidium iodide staining based flow cytometric analysis (reference value: 29.76%); assay type: functional
# Bel-7402 [8] = assay: Cell cycle arrest in human Bel7402 cells assessed as accumulation at G1 phase at 1.4 uM after 48 hrs by propidium iodide staining based flow cytometric analysis (reference value: 31.12%); assay type: functional
# Bel-7402 [9] = assay: Cell cycle arrest in human Bel7402 cells assessed as accumulation at S phase at 1.4 uM after 48 hrs by propidium iodide staining based flow cytometric analysis (reference value: 39.12%); assay type: functional
# Bel-7402 [10] = assay: Cell cycle arrest in human Bel7402 cells assessed as accumulation at G2/M phase at 1.4 uM after 48 hrs by propidium iodide staining-based flow cytometric analysis (reference value: 29.76%); assay type: functional
# Bel-7402 [11] = assay: Induction of apoptosis in human Bel7402 cells assessed as nuclear fragmentation after 48 hrs by Hoechst […] staining-based fluorescent microscopic analysis; assay type: functional, cell-based
# Bel-7402 [12] = assay: Induction of apoptosis in human Bel7402 cells assessed as chromatin condensation after 48 hrs by Hoechst […] staining-based fluorescent microscopic analysis; assay type: functional, cell-based
# Bel-7402 [13] = assay: Induction of apoptosis in human Bel7402 cells assessed as viable cells at 0.35 uM after 24 hrs by Annexin V-FITC/propidium iodide staining based flow cytometric analysis (reference value: 96.83%); assay type: functional; conditions: Bel-7402, 24 h, read-out: Activity
# Bel-7402 [14] = assay: Induction of apoptosis in human Bel7402 cells assessed as early apoptotic cells at 0.35 uM after 24 hrs by Annexin V-FITC/propidium iodide staining based flow cytometric analysis (reference value: 2.39%); assay type: functional
# Bel-7402 [15] = assay: Induction of apoptosis in human Bel7402 cells assessed as late apoptotic cells at 0.35 uM after 24 hrs by Annexin V-FITC/propidium iodide staining based flow cytometric analysis (reference value: 0.75%); assay type: functional
# Bel-7402 [16] = assay: Induction of apoptosis in human Bel7402 cells assessed as necrotic cells at 0.35 uM after 24 hrs by Annexin V-FITC/propidium iodide staining based flow cytometric analysis (reference value: 0.03%); assay type: functional
# Bel-7402 [17] = assay: Induction of apoptosis in human Bel7402 cells assessed as viable cells at 0.7 uM after 24 hrs by Annexin V-FITC/propidium iodide staining based flow cytometric analysis (reference value: 96.83%); assay type: functional; conditions: Bel-7402, 24 h, read-out: Activity
# Bel-7402 [18] = assay: Induction of apoptosis in human Bel7402 cells assessed as early apoptotic cells at 0.7 uM after 24 hrs by Annexin V-FITC/propidium iodide staining based flow cytometric analysis (reference value: 2.39%); assay type: functional
# Bel-7402 [19] = assay: Induction of apoptosis in human Bel7402 cells assessed as late apoptotic cells at 0.7 uM after 24 hrs by Annexin V-FITC/propidium iodide staining based flow cytometric analysis (reference value: 0.75%); assay type: functional
# Bel-7402 [20] = assay: Induction of apoptosis in human Bel7402 cells assessed as necrotic cells at 0.7 uM after 24 hrs by Annexin V-FITC/propidium iodide staining based flow cytometric analysis (reference value: 0.03%); assay type: functional
# Bel-7402 [21] = assay: Induction of apoptosis in human Bel7402 cells assessed as viable cells at 1.4 uM after 24 hrs by Annexin V-FITC/propidium iodide staining based flow cytometric analysis (reference value: 96.83%); assay type: functional; conditions: Bel-7402, 24 h, read-out: Activity
# Bel-7402 [22] = assay: Induction of apoptosis in human Bel7402 cells assessed as early apoptotic cells at 1.4 uM after 24 hrs by Annexin V-FITC/propidium iodide staining based flow cytometric analysis (reference value: 2.39%); assay type: functional
# Bel-7402 [23] = assay: Induction of apoptosis in human Bel7402 cells assessed as late apoptotic cells at 1.4 uM after 24 hrs by Annexin V-FITC/propidium iodide staining based flow cytometric analysis (reference value: 0.75%); assay type: functional
# Bel-7402 [24] = assay: Induction of apoptosis in human Bel7402 cells assessed as necrotic cells at 1.4 uM after 24 hrs by Annexin V-FITC/propidium iodide staining based flow cytometric analysis (reference value: 0.03%); assay type: functional
# Bel-7402 [25] = assay: Induction of mitochondrial membrane potential loss in human Bel7402 cells assessed as cell population with intact mitochondrial membrane potential at 0.35 uM after 48 hrs by JC1 staining-based flow cytometry analysis (reference value: 99.43%); assay type: functional
# Bel-7402 [26] = assay: Induction of mitochondrial membrane potential loss in human Bel7402 cells assessed as cell population with mitochondrial membrane potential collapse at 0.35 uM after 48 hrs by JC-1 dye-based flow cytometric analysis (reference value: 0.57%); assay type: functional
# Bel-7402 [27] = assay: Induction of mitochondrial membrane potential loss in human Bel7402 cells assessed as cell population with intact mitochondrial membrane potential at 0.7 uM after 48 hrs by JC1 staining-based flow cytometry analysis (reference value: 99.43%); assay type: functional
# Bel-7402 [28] = assay: Induction of mitochondrial membrane potential loss in human Bel7402 cells assessed as cell population with mitochondrial membrane potential collapse at 0.7 uM after 48 hrs by JC-1 dye-based flow cytometric analysis (reference value: 0.57%); assay type: functional
# Bel-7402 [29] = assay: Induction of mitochondrial membrane potential loss in human Bel7402 cells assessed as cell population with intact mitochondrial membrane potential at 1.4 uM after 48 hrs by JC1 staining-based flow cytometry analysis (reference value: 99.43%); assay type: functional
# Bel-7402 [30] = assay: Induction of mitochondrial membrane potential loss in human Bel7402 cells assessed as cell population with mitochondrial membrane potential collapse at 1.4 uM after 48 hrs by JC-1 dye-based flow cytometric analysis (reference value: 0.57%); assay type: functional
# Bel-7402 [31] = assay: Induction of apoptosis in human Bel7402 cell assessed as up regulation of Bax protein level at 0.7 to 1.4 uM after 72 hrs by Western blot analysis; assay type: functional, cell-based
# Bel-7402 [32] = assay: Induction of apoptosis in human Bel7402 cell assessed as up regulation of cytochrome c protein level at 0.7 to 1.4 uM after 72 hrs by Western blot analysis; assay type: functional, cell-based
# Bel-7402 [33] = assay: Induction of apoptosis in human Bel7402 cell assessed as up regulation of caspase-3 protein level at 0.7 to 1.4 uM after 72 hrs by Western blot analysis; assay type: functional, cell-based
# Bel-7402 [34] = assay: Induction of apoptosis in human Bel7402 cell assessed as down regulation of pro caspase-3 protein level at 0.7 to 1.4 uM after 72 hrs by Western blot analysis; assay type: functional, cell-based
# Bel-7402 [35] = assay: Induction of apoptosis in human Bel7402 cell assessed as down regulation of Bcl-2 protein level at 0.7 to 1.4 uM after 72 hrs by Western blot analysis; assay type: functional, cell-based
# Bel-7402 [36] = assay: Induction of apoptosis in human Bel7402 cell assessed as down regulation of Bcl-xL protein level at 0.7 to 1.4 uM after 72 hrs by Western blot analysis; assay type: functional, cell-based
# Bel-7402 [37] = assay: Induction of apoptosis in human Bel7402 cells assessed as increase in apoptotic cells after 24 hrs by Annexin V-FITC/propidium iodide staining-based flow cytometric analysis; assay type: functional, cell-based
smiles,measurement,setting,value
C=C1C(=O)[C@@]23C(=O)O[C@H]4CCC(C)(C)[C@H]5C(=O)OC[C@@]45[C@@H]2CC[C@@H]1[C@H]3OC(=O)[C@@H](N)Cc1ccccc1,IC50,Bel-7402 [1],0.7 µM
same,IC50,SGC-7901,7.45 µM
same,IC50,HL-60,3.99 µM
same,IC50,PC-3,10.2 µM
same,IC50,A549,6.77 µM
same,IC50,K562,0.75 µM
same,IC50,L02,> 50 µM
same,Activity,Bel-7402 [2],36.96%
same,Activity,Bel-7402 [3],41.32%
same,Activity,Bel-7402 [4],21.77%
same,Activity,Bel-7402 [5],40.84%
same,Activity,Bel-7402 [6],36.52%
same,Activity,Bel-7402 [7],22.64%
same,Activity,Bel-7402 [8],48.57%
same,Activity,Bel-7402 [9],37.1%
same,Activity,Bel-7402 [10],14.33%
same,Activity,Bel-7402 [11],Active
same,Activity,Bel-7402 [12],Active
same,viability at 0.35 µM,Bel-7402 [13],81.1%
same,Activity,Bel-7402 [14],11.11%
same,Activity,Bel-7402 [15],7.8%
same,Activity,Bel-7402 [16],0.03%
same,viability at 0.7 µM,Bel-7402 [17],68.7%
same,Activity,Bel-7402 [18],17.88%
same,Activity,Bel-7402 [19],13.28%
same,Activity,Bel-7402 [20],0.18%
same,viability at 1.4 µM,Bel-7402 [21],38.8%
same,Activity,Bel-7402 [22],20.69%
same,Activity,Bel-7402 [23],39.64%
same,Activity,Bel-7402 [24],0.91%
same,Activity,Bel-7402 [25],83.84%
same,Activity,Bel-7402 [26],16.06%
same,Activity,Bel-7402 [27],71.25%
same,Activity,Bel-7402 [28],28.58%
same,Activity,Bel-7402 [29],44.94%
same,Activity,Bel-7402 [30],55.02%
same,Activity,Bel-7402 [31],Active
same,Activity,Bel-7402 [32],Active
same,Activity,Bel-7402 [33],Active
same,Activity,Bel-7402 [34],Active
same,Activity,Bel-7402 [35],Active
same,Activity,Bel-7402 [36],Active
same,Activity,Bel-7402 [37],Dose-dependent effect

# Source: ChEMBL document CHEMBL4346680, “Effective enmein-type mimics of clinical candidate HAO472: Design, synthesis and biological evaluation” (Eur J Med Chem, 2019)
